# Test results from patent US20110230476A1, “PI3 KINASE INHIBITORS AND USES THEREOF” (AVILA THERAPEUTICS, INC., priority 2009, published 2011).
# Legend:
# PI3Kα (p110α/p85α) = biological target: T1, PI3Kα (p110α/p85α) (Homo sapiens, UniProt P42336); test: HTRF assay, potency against active PI3Kα; assay type: biochemical; details: HTRF; [ATP]=50 μM, [di-C8-PIP2]=10 μM; 30 min pre-incubation; read-out: PI3Kα Inhibition
# T1 construct: purchased BPS Bioscience (San Diego, Calif.) or Millipore (Billerica, Mass.)
# T1 sequence (P42336 whole entry): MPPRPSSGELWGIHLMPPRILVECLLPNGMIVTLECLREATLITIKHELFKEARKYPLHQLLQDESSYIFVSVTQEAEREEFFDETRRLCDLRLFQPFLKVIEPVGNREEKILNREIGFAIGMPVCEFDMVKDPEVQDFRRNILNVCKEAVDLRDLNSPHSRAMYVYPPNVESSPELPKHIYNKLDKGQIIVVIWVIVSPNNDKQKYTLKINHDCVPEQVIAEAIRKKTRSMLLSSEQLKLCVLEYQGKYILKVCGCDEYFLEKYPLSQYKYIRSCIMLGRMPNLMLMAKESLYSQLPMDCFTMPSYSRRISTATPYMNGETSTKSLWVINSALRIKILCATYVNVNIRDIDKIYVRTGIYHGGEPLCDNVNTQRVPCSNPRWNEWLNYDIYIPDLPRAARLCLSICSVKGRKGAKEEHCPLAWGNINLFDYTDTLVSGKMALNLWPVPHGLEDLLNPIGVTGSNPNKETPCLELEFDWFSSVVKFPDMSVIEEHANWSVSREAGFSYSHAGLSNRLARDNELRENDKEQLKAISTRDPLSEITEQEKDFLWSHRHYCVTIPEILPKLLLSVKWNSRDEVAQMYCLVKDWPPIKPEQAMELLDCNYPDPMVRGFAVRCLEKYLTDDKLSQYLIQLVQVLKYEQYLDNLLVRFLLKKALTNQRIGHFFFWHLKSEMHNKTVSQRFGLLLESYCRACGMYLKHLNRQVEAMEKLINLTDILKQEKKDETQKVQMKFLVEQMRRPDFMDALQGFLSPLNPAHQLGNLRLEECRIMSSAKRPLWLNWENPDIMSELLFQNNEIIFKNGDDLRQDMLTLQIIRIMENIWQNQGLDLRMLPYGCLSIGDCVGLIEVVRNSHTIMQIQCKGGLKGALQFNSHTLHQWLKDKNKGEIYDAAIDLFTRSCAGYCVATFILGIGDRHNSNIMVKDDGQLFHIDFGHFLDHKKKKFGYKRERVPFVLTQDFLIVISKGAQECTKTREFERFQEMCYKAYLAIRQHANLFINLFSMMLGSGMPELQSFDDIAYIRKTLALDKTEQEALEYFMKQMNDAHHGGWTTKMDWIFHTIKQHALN
# T1 sequence (P27986 whole entry partner): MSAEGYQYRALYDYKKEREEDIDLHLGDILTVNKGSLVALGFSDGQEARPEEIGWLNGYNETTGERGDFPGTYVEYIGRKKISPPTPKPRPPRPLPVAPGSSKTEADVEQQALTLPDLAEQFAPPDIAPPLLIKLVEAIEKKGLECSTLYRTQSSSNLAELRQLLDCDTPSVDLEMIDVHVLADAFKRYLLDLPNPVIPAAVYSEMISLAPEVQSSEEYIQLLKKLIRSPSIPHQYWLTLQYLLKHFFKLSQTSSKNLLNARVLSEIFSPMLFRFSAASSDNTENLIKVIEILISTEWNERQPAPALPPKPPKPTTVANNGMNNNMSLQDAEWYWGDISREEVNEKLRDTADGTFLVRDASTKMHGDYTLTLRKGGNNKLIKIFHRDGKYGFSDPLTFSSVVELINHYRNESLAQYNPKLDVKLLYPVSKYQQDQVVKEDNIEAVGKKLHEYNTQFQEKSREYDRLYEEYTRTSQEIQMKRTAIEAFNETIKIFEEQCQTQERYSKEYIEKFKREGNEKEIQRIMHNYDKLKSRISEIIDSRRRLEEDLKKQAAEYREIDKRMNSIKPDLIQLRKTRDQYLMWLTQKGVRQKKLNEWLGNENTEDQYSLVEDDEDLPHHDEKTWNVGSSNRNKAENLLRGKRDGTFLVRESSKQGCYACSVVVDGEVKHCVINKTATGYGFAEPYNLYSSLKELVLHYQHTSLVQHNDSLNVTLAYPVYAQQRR
# In short: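 IC50 came from a variable-slope fit of % inhibition, calculated from the HTRF emission ratio relative to wells with and without enzyme. Reactions with the active enzyme complex ran 30-60 minutes at 25 °C after ATP addition before stop and detection reagents.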
# Phospho-Akt(Ser473) [1] = test: Dose response in SKOV3 cells as determined by Western blot; assay type: cell-based; details: Homo sapiens, SK-OV-3, 1 hr, Phospho-Akt normalized to total Akt, read-out: Immunoblot
# Procedure: Dose Response in SKOV3 Cells as Determined by Western Blot
# SKOV3 cells were plated in SKOV3 Growth Media (DMEM supplemented with 10% FBS and pen/strep) at a density of 4×10^5 cells per well of 12 well plates. Twenty four hours later the media was removed and replaced with 1 ml media containing test compound and 0.1% DMSO and cells were returned to the incubator for 1 hr. At the end of the hour, the media was removed and the cells were washed with PBS, then lysed and scraped into 30 ul of Cell Extraction Buffer (Biosource, Camarillo, Calif.) plus Complete Protease Inhibitor and PhosStop Phosphatase Inhibitor (Roche, Indianapolis, Ind.).
# Cell debris was spun down at 13,000×g for 1 minute and the supernatant was taken as the cell lysate. Protein concentration of the lysate was determined by BCA Assay (Pierce Biotechnology, Rockford, Ill.) and 50 ug of protein was loaded per well onto a NuPAGE Novex 4-12% Bis-Tris gel (Invitrogen, Carlsbad, Calif.) then transferred to Immobilon PVDF-FL (Millipore, Billerica, Mass.).
# The blot was blocked in Odyssey Blocking Buffer (Li-Cor Biosciences, Lincoln, Nebr.) for 1 hr then incubated overnight at 4° C. with mouse anti-Akt (#2920) and rabbit anti-Phospho-Akt(Ser473) (#9271)(Cell Signaling Technology, Boston, Mass.) antibodies, both diluted 1:1000 in PBS/Odyssey Buffer (1:1)+0.1% Tween-20. The blots were washed 3 times 5 minutes in PBS+0.2% Tween-20 then incubated for 1 hr at room temperature with fluorescently labeled secondary antibodies (Li-Cor) diluted 1:10000 in PBS/Odyssey Buffer (1:1)+0.1% Tween-20.
# The blots were washed 2 times for 5 minutes in PBS+0.2% Tween-20, once in distilled water, then scanned on an Odyssey machine (Li-Cor). Band intensity was determined using the Odyssey software and Phopho-Akt signal was normalized to total Akt within samples, then expressed as a percentage of the untreated Phospho-Akt signal.
# Phospho-Akt(Ser473) [2] = test: Dose response in SKOV3 cells as determined by in-cell Western; assay type: cell-based; details: Homo sapiens, SK-OV-3; SKOV3 cells, 1 hr; read-out: pAKT Inhibition in cell Western
# Procedure: Dose Response in SKOV3 Cells as Determined by in-Cell Western
# Twenty four hours later the media was removed and replaced with 100 ul media containing test compound or control compound and cells were returned to the incubator for 1 hr. At the end of the hour, the media was removed and the cells were washed once with PBS, then fixed for 20 minutes at room temperature in 4% formaldehyde in PBS. The formaldehyde was removed and cells were washed 5 times for 5 minutes with 100 ul of Permeabilization Buffer (PBS+0.1% Triton X-100) at room temperature with gentle shaking. The last wash was removed and replaced with 150 ul of Odyssey Blocking Buffer (Li-Cor, Lincoln, Nebr.) and incubated for 90 minutes at room temperature with gentle shaking.
# The Blocking Buffer was then replaced with 50 ul of primary antibody mix (rabbit anti-Phospho-Akt(Ser473) at 1:100 (Cell Signaling Technology, Boston, Mass.) and mouse anti-tubulin at 1:5000 (Sigma Aldrich, St. Louis, Mo.) diluted in Odyssey Blocking Buffer) and incubated overnight at room temperature with gentle shaking.
# The next morning, the antibody mix was removed and the wells were washed 5 times for 5 minutes with PBS+0.1% Tween-20. The last wash was replaced with 50 ul of secondary antibody mix (goat anti-rabbit-IRDye-680 and goat anti-mouse-IRDye-800 (Li-Cor), both diluted 1:1000 in Odyssey Blocking Buffer+0.2% Tween-20) and incubated for 1 hour at room temperature with gentle shaking. The antibody mix was removed and the wells were washed 5 times for 5 minutes in PBS+0.1% Tween-20, then 1 time with ddH2O.
# The plates were scanned on an Odyssey machine (Li-Cor) with a 3 mm focus offset at an intensity of 8 in both channels and the data was analyzed using the Odyssey software.
# SKOV3 cells = test: GI50 determinations in SKOV3 cells; assay type: cell-based; details: Homo sapiens, SK-OV-3; SKOV3 cells, 96 hours, Cell Titer Glo
# Procedure: GI50 Determinations in SKOV3 Cells
# A standard curve ranging from 10,000 to 50,000 cells was set up in a separate plate and allowed to adhere to the plate for 4-6 hours, at which time the plate was developed using Cell Titer-Glow (Promega, Madison, Wis.) according to manufacturer's instructions.
# The next morning, 3-fold compound dilutions ranging from 10,000 nM to 40 nM were prepared in Proliferation Media containing 1% DMSO. 20 ul of each dilution was added to the SKOV3 cells plated the previous day resulting in a dose response curve from 1000 nM to 4 nM. The cells were incubated for 96 hours and then developed with Cell Titer Glo.
# The cell numbers at the end of the assay were determined using the standard curve generated at the start of the assay. Growth inhibition was calculated using the following formulas and GI50s were determined by plotting the % growth inhibition vs. Log compound concentration in GraphPad.
# %growth=100×(T−T0)/(C−T0)
# T=Cell Number at end of assay T0=Cell Number at start of assay (5000) C=Number of cells in DMSO controls at end of assay
# %growth inhibition=100−%growth
# PI3Kγ (p120γ) = biological target: T2, PI3Kγ (p120γ) (Homo sapiens, UniProt P48736); test: HTRF assay, potency against active PI3Kγ; assay type: biochemical; details: [ATP]=50 μM, [di-C8-PIP2]=10 μM, 30 min pre-incubation, read-out: PI3Kγ Inhibition
# T2 construct: purchased BPS Bioscience (San Diego, Calif.) or Millipore (Billerica, Mass.)
# T2 sequence (P48736 whole entry): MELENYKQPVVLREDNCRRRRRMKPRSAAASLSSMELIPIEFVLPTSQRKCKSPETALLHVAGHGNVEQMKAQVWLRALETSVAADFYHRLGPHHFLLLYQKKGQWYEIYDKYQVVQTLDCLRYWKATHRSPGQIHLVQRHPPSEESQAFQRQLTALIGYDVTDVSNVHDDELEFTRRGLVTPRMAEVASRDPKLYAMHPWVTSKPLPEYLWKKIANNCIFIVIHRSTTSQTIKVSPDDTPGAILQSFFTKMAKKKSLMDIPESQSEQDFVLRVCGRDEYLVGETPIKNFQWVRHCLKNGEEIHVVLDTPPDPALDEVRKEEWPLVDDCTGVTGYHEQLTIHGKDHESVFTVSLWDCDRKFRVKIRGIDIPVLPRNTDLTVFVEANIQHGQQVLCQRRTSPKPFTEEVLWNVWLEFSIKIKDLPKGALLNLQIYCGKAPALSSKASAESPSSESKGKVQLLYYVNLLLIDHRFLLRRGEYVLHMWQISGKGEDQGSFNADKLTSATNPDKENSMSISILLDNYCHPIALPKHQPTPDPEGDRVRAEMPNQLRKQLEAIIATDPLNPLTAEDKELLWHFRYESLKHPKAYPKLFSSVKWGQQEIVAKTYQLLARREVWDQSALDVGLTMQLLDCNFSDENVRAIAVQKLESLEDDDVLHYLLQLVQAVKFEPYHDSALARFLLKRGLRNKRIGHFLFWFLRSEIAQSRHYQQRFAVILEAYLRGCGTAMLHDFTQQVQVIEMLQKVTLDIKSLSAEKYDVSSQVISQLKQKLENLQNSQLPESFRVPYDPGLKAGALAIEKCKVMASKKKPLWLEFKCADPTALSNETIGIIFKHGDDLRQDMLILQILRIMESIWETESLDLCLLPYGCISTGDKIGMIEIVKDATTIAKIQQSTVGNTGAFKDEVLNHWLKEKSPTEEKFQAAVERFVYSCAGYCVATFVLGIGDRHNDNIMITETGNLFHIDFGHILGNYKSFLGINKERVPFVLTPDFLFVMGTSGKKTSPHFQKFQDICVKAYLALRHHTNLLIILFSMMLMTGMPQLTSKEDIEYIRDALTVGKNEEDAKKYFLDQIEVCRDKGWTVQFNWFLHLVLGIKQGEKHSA
# In short: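 End-point competition HTRF: enzyme (p110β/p85α 0.75 nM; p120γ 2-2.5 nM) with 10 μM di-C8-PIP2 pre-incubated 30 min at 25° C with compound, then 50 μM ATP added for 30-60 min at 25° C. Stopped, detected after 1 and 18 h; IC50 from variable-slope fit.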
IC50 (PI3Kα (p110α/p85α)) [nM],EC50 (Phospho-Akt(Ser473) [2]) [nM],GI50 (SKOV3 cells) [nM],IC50 (PI3Kγ (p120γ)) [nM],Structure (SMILES),EC50 (Phospho-Akt(Ser473) [1]) [nM]
< 10,10 to 100,,,"O=C(/C=C/c1ccccc1)CCC(=O)N1CCN(C(=O)c2cc3nc(-c4cccc5[nH]ncc45)nc(N4CCOCC4)c3s2)CC1 [II-a-142, (E)-1-(4-(2-(1H-indazol-4-yl)-4-morpholinothieno[3,2-d]pyrimidine-6-carbonyl)piperazin-1-yl)-6-phenylhex-5-ene-1,4-dione]",10 to 100
10 to 100,,100 to 1000,,"C=CC(=O)Nc1cc(C(=O)N2CC=C(c3cc4nc(-c5cnc(N)nc5)nc(N5CCOCC5)c4s3)CC2)ccc1Cl [II-a-159, N-(5-(4-(2-(2-aminopyrimidin-5-yl)-4-morpholinothieno[3,2-d]pyrimidin-6-yl)-1,2,3,6-tetrahydropyridine-1-carbonyl)-2-chlorophenyl)acrylamide]",
100 to 1000,,100 to 1000,,"CNC(=O)Nc1ccc(-c2nc(N3CCOCC3)c3cnn(C4CCN(C(=O)CCCC(=O)/C=C/c5ccccc5)CC4)c3n2)cc1 [VII-11, (E)-1-methyl-3-(4-(4-morpholino-1-(1-(5-oxo-7-phenylhept-6-enoyl)piperidin-4-yl)-1H-pyrazolo[3,4-d]pyrimidin-6-yl)phenyl)urea]",
100 to 1000,,10 to 100,,"CNC(=O)Nc1ccc(-c2nc(N3CCOCC3)c3cnn(C4CCN(C(=O)CCC(=O)/C=C/c5ccccc5)CC4)c3n2)cc1 [VII-10, (E)-1-methyl-3-(4-(4-morpholino-1-(1-(4-oxo-6-phenylhex-5-enoyl)piperidin-4-yl)-1H-pyrazolo[3,4-d]pyrimidin-6-yl)phenyl)urea]",
100 to 1000,≤ 10,100 to 1000,,"C=CC(=O)Nc1ccc(C(=O)N2CCN(C(=O)c3cc4nc(-c5cccc6[nH]ncc56)nc(N5CCOCC5)c4s3)CC2)cc1 [II-a-143, N-(4-(4-(2-(1H-indazol-4-yl)-4-morpholinothieno[3,2-d]pyrimidine-6-carbonyl)piperazine-1-carbonyl)phenyl)acrylamide]",
10 to 100,,10 to 100,,"C=CC(=O)Nc1ccc(C(=O)NCCOc2ccc3c(c2OC)N=C(NC(=O)c2cccnc2)N2CCN=C32)cc1 [IX-5, N-(8-(2-(4-acrylamidobenzamido)ethoxy)-7-methoxy-2,3-dihydroimidazo[1,2-c]quinazolin-5-yl)nicotinamide]",
100 to 1000,100 to 1000,100 to 1000,,"C=CC(=O)Nc1ccc(C(=O)N2CCC(n3ncc4c(N5CCOCC5)nc(-c5ccc(NC(=O)NC)cc5)nc43)CC2)cc1 [VII-8, N-(4-(4-(6-(4-(3-methylureido)phenyl)-4-morpholino-1H-pyrazolo[3,4-d]pyrimidin-1-yl)piperidine-1-carbonyl)phenyl)acrylamide]",
100 to 1000,10 to 100,,,"C=CC(=O)Nc1ccc(COCc2cc3nc(-c4cnc(N)nc4)nc(N4CCOCC4)c3s2)cc1 [II-a-173, N-(4-(((2-(2-aminopyrimidin-5-yl)-4-morpholinothieno[3,2-d]pyrimidin-6-yl)methoxy)methyl)phenyl)acrylamide]",≤ 10
10 to 100,,100 to 1000,,"O=C(/C=C(/c1ccccc1)C(F)(F)F)CCC(=O)N1CCN(Cc2cc3nc(-c4cccc5[nH]ncc45)nc(N4CCOCC4)c3s2)CC1 [II-a-158, (Z)-1-(4-((2-(1H-indazol-4-yl)-4-morpholinothieno[3,2-d]pyrimidin-6-yl)methyl)piperazin-1-yl)-7,7,7-trifluoro-6-phenylhept-5-ene-1,4-dione]",
> 1000,10 to 100,100 to 1000,,"O=C(/C=C/c1ccccn1)CCC(=O)NCC12CCC(c3cc4nc(-c5cccc6[nH]ncc56)nc(N5CCOCC5)c4s3)(CC1)OC2 [II-a-163, (E)-N-((1-(2-(1H-indazol-4-yl)-4-morpholinothieno[3,2-d]pyrimidin-6-yl)-2-oxabicyclo[2.2.2]octan-4-yl)methyl)-4-oxo-6-(pyridin-2-yl)hex-5-enamide]",
10 to 100,≤ 10,10 to 100,,"C=C(CC)C(=O)CCC(=O)N1CCN(Cc2cc3nc(-c4cccc5[nH]ncc45)nc(N4CCOCC4)c3s2)CC1 [II-a-86, 1-(4-((2-(1H-indazol-4-yl)-4-morpholinothieno[3,2-d]pyrimidin-6-yl)methyl)piperazin-1-yl)-5-methyleneheptane-1,4-dione]",
10 to 100,≤ 10,,> 1000,C=C(C)C(=O)CCCC(=O)N1CCN(Cc2cc3nc(-c4cccc5[nH]ncc45)nc(N4CCOCC4)c3s2)CC1 [II-a-14],10 to 100
100 to 1000,10 to 100,,,"C=CC(=O)Nc1ccc(CC(=O)N2CCC(n3ncc4c(N5CCOCC5)nc(-c5cnc(N)nc5)nc43)CC2)cc1 [VII-13, N-(4-(2-(4-(6-(2-aminopyrimidin-5-yl)-4-morpholino-1H-pyrazolo[3,4-d]pyrimidin-1-yl)piperidin-1-yl)-2-oxoethyl)phenyl)acrylamide]",10 to 100
100 to 1000,≤ 10,,100 to 1000,"CC(C)=CC(=O)CCCC(=O)N1CC=C(c2cc3nc(-c4cnc(N)nc4)cc(N4CCOCC4)c3s2)CC1 [II-g-3, 1-(4-(5-(2-aminopyrimidin-5-yl)-7-morpholinothieno[3,2-b]pyridin-2-yl)-5,6-dihydropyridin-1(2H)-yl)-7-methyloct-6-ene-1,5-dione]",100 to 1000
10 to 100,,,> 1000,"C/C=C/C(=O)CCCC(=O)N1CCN(Cc2cc3nc(-c4cccc5[nH]ncc45)nc(N4CCOCC4)c3s2)CC1 [II-a-22, (E)-1-(4-((2-(1H-indazol-4-yl)-4-morpholinothieno[3,2-d]pyrimidin-6-yl)methyl)piperazin-1-yl)oct-6-ene-1,5-dione]",10 to 100
